Earlier results in patent US20110257192A1, “COMPOUND FOR TREATMENT OF RESPIRATORY CONDITION OR DISEASE” (BIOTA SCIENTIFIC MANAGEMENT PTY LTD, priority 2010, published 2011).

Details: administered orally

Compound: Cc1cc(CCCOc2c(C)cc(-c3noc(C(F)(F)F)n3)cc2C)on1 [pleconaril]
- effect on asthma exacerbation: did not have an effect on asthma exacerbation
